Measurements from patent publication US6346539B1, “Treatment of skin conditions” (BTG International Limited, priority 1998, dated 2002).
Marks after values point to notes of the source that are not given here.

Tests used:
[1] = system: human melanocytes; test: Proliferation of human melanocytes cultured in petri dishes, haemocytometer count; assay type: cell-based
Experimental: (§1) For the second protocol, subconfluent human melanocytes were subcultured in a Ø60 mm petri dishes (28 cm^2, Falcon) with RPMI 1640 basic medium supplemented with FBS (10%), CT (1 nM), bFGF (100 pM) and endothelin 1 (1 nM). The initial plating density was 10,000 cells/cm^2, with 5 ml medium per dish. Cells were incubated for 2-3 hours in 10% CO2, humidified atmosphere, at 37° C., followed by addition of piperine solution in to the dishes, making the final concentrations of 0, 1, 5, 10 and 100 μM. Cells in the above supplemented medium lacking endothelin 1 were also set up as a negative control. Three dishes were used for each treatment and the culture was maintained for 5 days before cells were harvested with trypsinisation and counted with a haemocytometer chamber. For melanin production experiment, the harvested cells were centrifuged and pelleted. After carefully removing the medium, NaOH (1 M) was used to solubilized the cell pellets and optical density read at 475 nm in a Perkin-Elmer UV spectrophotometer (model UV/VIS Lambda 2). The melanin content was calculated by using a regression equation y=0.005+0.005× corresponding to the calibration curve for synthetic melanin.

[2] = system: Melan-a; test: Effects of piperine and TPA on growth of Melan-a (panel of cell types); assay type: cell-based, mouse; details: piperine 0.1 and 1 μM (FIG. 4)
Experimental: Cells of mouse melan-a cell line (passage number 18-24), a first known line of non-tumorigenic pigmented mouse melanocytes were maintained in a flask (Costar, Cambridge, Mass., USA) using RPMI 1640 (ICN, Costa, Mesa, Calif., USA) as a basic medium. For microplate proliferation assays, subconfluent melan-a cultures were trypsinized (0.25% trypsin at 37° C. for 5-10 min) and inoculated with a repeater-pipettor (Finn pipette, Labsystems, Finland) into 96-well microtiter plates (Costar, Cambridge, Mass., USA). The plates were incubated at 37° C. in a 10% CO2, 90% air humidified atmosphere for the stated length of time. At the end of the incubation, an SRB assay was performed. Briefly, cells attached to the bottom of the plate were fixed by addition of cold trichloroacetic acid (TCA, 4° C., Aldrich, Dorset, UK) on the top of the growth medium (final TCA 20% w/v). The plate was placed at 4° C. for 1 hour before being gently washed five times with tap water. It was allowed to dry in air, or aided with a hair dryer to speed up the drying process, then 50 μl of 4% w/v SRB dissolved in 1% acetic acid in water was added to each well for 30 min. […] The plate was shaken for 15 min on a gyratory shaker followed by reading the optical density (OD) at 550 nm in a microplate spectrophotometer (Anthos Labtec HT3, version 1.06). […]

[3] = system: human melanocytes; test: Melanin production of human melanocytes cultured in petri dishes; assay type: cell-based; details: 5 days
Experimental: as §1

[4] = system: B16F10 mouse melanoma; test: Effects of piperine and TPA on growth of B16F10 (panel); assay type: cell-based
Experimental: (§2) In order to determine the specificity of piperine, a panel of different cell types were employed to facilitate this investigation. These included melan-a, melan-c, SVK14, CSM, XB2, SC1, B16F10, IM9, CACO2, Swiss 3T3 cell lines and normal human lymphocytes. TPA (20 nM) was also tested on these cells.

[5] = system: FM21E Melanoblast; test: Effects of piperine and TPA on growth of human melanoblasts, SRB assay; assay type: cell-based
Experimental: as §2
Human melanoblasts in culture in this experiment were established from human foetal skin. Subconfluent melanoblasts maintained in MCDB 153 medium supplemented with 10% FBS, 10 ng/ml stem cell factor (SCF) and 1 nM endothelin 3 were subcultured and inoculated into 96-well microplate with 6×10^3 cells/100 μl/well. After incubation in the 10% CO2, humidified atmosphere, at 37° C. for 3-4 hours to allow the attachment of the cells on the plate, piperine dissolved in MeOH and water was added into the wells. The final concentrations of piperine were 1, 5, 10, 100 μM, with TPA (20 nM) as positive control. Six replicates were used in each group of treatment, with 12 wells used for vehicle control. The incubation was conducted for 5 days before cells were harvested by fixing with cold trichloroacetic acid (TCA, at 4° C., final concentration 20% v/v), and evaluated for cell number using an SRB assay. […] Growth in the presence of piperine and TPA was expressed as % of control incubations containing no piperine or TPA. […]

[6] = system: FM21E human melanocytes; test: Effects of piperine and TPA on growth of human melanocytes, 24-well plate, SRB assay; assay type: cell-based
Experimental: as §2
For the first protocol, subconfluent human melanocytes maintained in a Ø100 mm petri dish were subcultured into two 24-well plates (Falcon) using basic culture medium of RPMI 1640 supplemented with FBS (10%), bFGF (100 pM), CT (1 nM) and endothelin 1 (1 nM). The initial plating density was 20,000 cells/cm^2 (38,200 cells/well) with each well containing 1000 μl medium. After incubation in a 10% CO2, humidified atmosphere, at 37° C. for 2-3 hours to allow the attachment of the cells, piperine in 500 μl medium was added into wells to made up final concentrations of 0, 1, 5, 10 and 100 μM. Cells only in the medium with above supplement lacking of endothelin 1 were also set up as negative control. Six replicates were used in each group of treatment, and culture was incubated for 5 days before the cells were harvested by fixing with cold TCA (final concentration 20%) and processed with SRB assay. The solubilized SRB dye solution was transferred to a 96-well plate for optical density reading.

[7] = system: melan-a cells; test: Proliferation of melan-a cells counted with haemocytometer; assay type: cell-based, mouse; set-up: unit not given here; details: 20 nM TPA; 4 days
Experimental: Melan-a cells were plated in petri dishes (Ø35 mm, Nunclon, Denmark) with a plating density of 2×10^4/ml and Piper nigrum extract at concentrations of 0.01 and 0.1 mg/ml. A negative control (cells in medium only) and positive TPA (20 nM) control were also set up. After 4 days the cells in each dish were harvested and counted with haemocytometer.

For `O=C(/C=C/C=C/c1ccc2c(c1)OCO2)N1CCCCC1` [Piperine, (E,E)-1-[5-(1,3-benzodioxol-5-yl)-1-oxo-2,4-pentadienyl]piperidine], the “cell number relative to ET1 (1 nM) control” value ([1]; 5 μM piperine for 5 days, petri dishes) was “over twice as many”, the “Cell no. (×10^−4) ± SD after cultured for 5 days” value (from here on “Cell no. (×10^−4) ± SD”) ([1]; ET1 (1 nM) + piperine (1 μM)) was 60.83 ± 16.78 ×10^−4 and the “Cell no. (×10^−4) ± SD” value ([1]; ET1 (1 nM) + piperine (5 μM)) was 78.96 ± 5.63 ×10^−4. The “Cell no. (×10^−4) ± SD” value ([1]; ET1 (1 nM) + piperine (10 μM)) was 64.79 ± 13.47 ×10^−4, the “Cell no. (×10^−4) ± SD” value ([1]; ET1 (1 nM) + piperine (100 μM)) was 61.04 ± 10.04 ×10^−4 and the activity at 1 µM ([1]; Homo sapiens, Melanocyte, 120 h, ET1 (1 nM) + piperine (1 μM), 5 days, read-out: % of control (ET1 1 nM)) was 169%. The activity at 5 µM ([1]; Homo sapiens, Melanocyte, 120 h, ET1 (1 nM) + piperine (5 μM), 5 days, read-out: % of control (ET1 1 nM)) was 219%, the activity at 10 µM ([1]; Homo sapiens, Melanocyte, 120 h, ET1 (1 nM) + piperine (10 μM), 5 days, read-out: % of control (ET1 1 nM)) was 180% and the activity at 100 µM ([1]; Homo sapiens, Melanocyte, 120 h, ET1 (1 nM) + piperine (100 μM), 5 days, read-out: % of control (ET1 1 nM)) was 169%. The “effect on melan-a proliferation” value [2] was “significantly stimulated melan-a proliferation”, the “Melanin content/10^4 cells” value ([3]; ET1 (1 nM) + piperine (1 μM)) was 0.42 ± 0.03 μg and the “OD reading ± SD at 475 nm” value ([3]; ET1 (1 nM) + piperine (1 μM)) was 0.134 ± 0.014. The “Melanin content/10^4 cells” value ([3]; ET1 (1 nM) + piperine (5 μM)) was 0.334 ± 0.01 μg, the “Melanin content/10^4 cells” value ([3]; ET1 (1 nM) + piperine (10 μM)) was 0.41 ± 0.07 μg and the “Melanin content/10^4 cells” value ([3]; ET1 (1 nM) + piperine (100 μM)) was 0.46 ± 0.001 μg. For the same molecule, the “effect on B16 mouse melanoma cell line” value [4] was “inhibitory effects”, the “more cell yield compared to vehicle control” value ([5]; 100 μM piperine for 5 days) was 34% and the more cells yielded ([6]; 10 μM piperine for 5 days, 24-well plate, ET1 1 nM) was 36%. For the same molecule, the “effect on the growth of human melanocytes” value ([6]; piperine 100 μM, 24-well plate) was “inhibitory effect”.

“tetradecanoyl phorbol acetate [TPA, reference compound]” was tested, and the “more cell yield compared to vehicle control” value ([5]; TPA 20 nM for 5 days) was “over 50%”, the “effect on the growth of human melanocytes” value ([6]; TPA 20 nM in the presence of 1 nM endothelin 1) was “not able to stimulate cell growth” and the cell number [7] was 5.0*.
